Experiments:
Fusobacterium nucleatum = assay: Binding affinity to Fusobacterium nucleatum class I aptamer assessed as ligand-target residence time at 1H-8 resonance by (1)H relaxation dispersion NMR spectroscopy
[1] = test system: Caldanaerobacter subterraneus subsp. tengcongensis; assay: Binding affinity to Thermoanaerobacter tengcongensis class I aptamer assessed as ligand-target residence time at 1H-8 resonance by (1)H relaxation dispersion NMR spectroscopy
Bos taurus [2] = species: Bos taurus; assay: Binding affinity to bovine trypsin assessed as ligand-target residence time at 1H-4/5 resonance by (1)H relaxation dispersion NMR spectroscopy
Bos taurus [3] = species: Bos taurus; assay: Binding affinity to bovine trypsin assessed as ligand-target residence time at 1H-9 resonance by (1)H relaxation dispersion NMR spectroscopy

## NCc1c[nH]c2nc(N)[nH]c(=O)c12
Fusobacterium nucleatum
  TIME: 1.75e-07 h
[1]
  TIME: 6.39e-08 h

## Nc1ccc2cc3ccc(N)cc3nc2c1
Bos taurus [2]
  TIME: 5.28e-08 h
Bos taurus [3]
  TIME: 5.56e-08 h
